Assays:
[1] = test system: A673, H526 and U20S cells; assay: Immunoblot analyses of DNA damage repair proteins; assay type: cell-based, human; settings: 2μM, 6h and 24h
Protocol: Protein concentrations were determined using the BCA kit (Pierce Biotechnology, Rockford, IL) according to the manufacturer's instructions. Protein lysates (20-100 μg) were electrophoretically resolved by SDS/PAGE, transferred to nitrocellulose membrane, and probed with the indicated primary antibodies: Phospho-ATM (Ser1981) (D6H9) from rabbit (1:500, 5883, Cell Signaling, Danvers, MA), Phospho-BRCA1 (Ser1524) from rabbit (1:500, 9009, Cell Signaling), DNA-PK from rabbit (1:500, 4602, Cell Signaling), Mre11 (31H4) from rabbit (1:500, 4847, Cell Signaling) and Rad50 from rabbit (1:500, 3427, Cell Signaling). Membranes were then incubated with a 1:5,000 dilution of a peroxidase conjugated corresponding secondary antibody. Equal loading of the protein samples was confirmed by parallel western blots for β-actin (1:5,000, ab822750; Abcam). Detection was performed using the ECL-Enhanced Chemiluminescence Detection System (GE Healthcare Biosciences, Pittsburgh, PA) according to the manufacturer's instructions. Blots were visualized by autoradiography.

A673 cells = assay: Drug combination study (Alamar Blue, Chou-Talalay combination index); assay type: cell-based, human
Protocol: The AlamarBlue® cell proliferation assay was used to test the effect of a single drug and a combination of drugs. A673 cells (5 × 10^3 cells/well) were added to 96 well plates in triplicate. After 12h incubation, BO-1055 and a second drug (Topotecan, SN38, Doxorubicin or PU-H71) were added simultaneously in a lattice format in varying concentrations. Plates were read after 72h drug exposure. Combination indices were derived as described below to identify the interaction in two-drug combinations.
Data are presented as mean±S.E.M. of at least three independent experiments done in triplicate. The comparison of means between treated and control mice was performed using two-tailed T-test or ANOVA (for more than two groups) as implemented in GraphPad Prism (version 4; GraphPad Software). Graphpad Prism software was used to plot concentration-effect curves and determine the drug concentration that inhibited the growth of cell lines by 50% compared to the control (IC50). A p-value of 0.05 or less was considered significant. Combination index (CI) values, as calculated by CompuSyn software (Chou and Martin, 2007), were used to evaluate the interaction between BO-1055 and a second drug (Topotecan, SN38, Doxorubicin or PU-H71). The Chou-Talalay method was used to quantify the synergism (CI < 1), additive effect (CI = 1) and antagonism (CI > 1) of various drug combinations.

[2] = test system: human CD34+ hematopoietic stem cells isolated from cord blood; assay: Colony forming unit (CFU) assay; assay type: cell-based; settings: concentration < 5μM
Protocol: We performed the colony forming unit (CFU) assays using human CD34+ hematopoietic stem cells isolated from cord blood to elucidate hematologic toxicity. We noted no effect on BFU-E, GM and mixed colonies at a concentration < 5μM of BO-1055 on CFU assay (Figure 2C).
Colony assays were performed in triplicate in 24 well plates using 1.2% methylcellulose (Dow Chemical, Waterloo, NY), 30% FCS, 57.2 μM β-mercaptoethanol, 2 mM glutamine, 0.5 mM hemin (Sigma, USA), 20 ng/mL interleukin 3 (IL-3), granulocyte colony stimulating factor (G-CSF), c-KIT ligand (KL) and 6 U/mL erythropoietin (Epo). IL-3 and KL and Epo were obtained from R and D Systems (Minneapolis, USA) and G-CSF was from Amgen (Thousand Oaks, CA). Colonies were scored 14 days after plating as per the protocol described earlier.

[3] = test system: patient derived Ewing sarcoma xenografts; assay: Combination in vivo study in Ewing sarcoma PDX; parameters: species or system NSG mice
A204 xenografts = A204 xenografts in nude mice; assay type: in vivo
Protocol: All mouse experiments were performed at the animal core facility at MSKCC under an approved protocol following the IACUC guidelines. Five to seven-week-old NOD/SCID IL2R gamma null (NSG) mice (bred at the Mouse Genetics Core Facility, MSKCC) were used for in vivo experiments. All mouse experiments were done following the IACUC guidelines at the animal facility at MSKCC. Tumors were induced using 10^6 A673 cells or A204 cells in 0.2ml 1:1 cellular medium, Matrigel matrix (BD Bioscience, Bedford, MA) and injected subcutaneously (s.q) into the right flank. The tumors were measured every 3 d with a caliper, and the diameters were recorded. Tumor volume was calculated by the formula a^2 b/2 where ‘a’ is the smallest and ‘b’ is the largest diameter. When the tumors reached 100mm^3, we randomized mice into control and drug treatment groups. Treatment groups received BO-1055 by tail vein injection at 10mg/kg, 20mg/kg and 30mg/kg q2d x 5 doses for mice bearing A673 xenografts. BO-1055 was given at 30mg/kg q2d x 5 doses for mice bearing A204 xenografts. De-identified patient tumor tissues were obtained in accordance with and approval from the MSKCC Institutional Review Board (IRB). Appropriate written consent and assent were obtained from the patients prior to sample collection. […]

For `CN(C)CCNC(=O)c1cccc(NC(=O)Nc2ccc(N(CCCl)CCCl)cc2)c1` [BO-1055], the pATM ([1]; A673, H526 and U20S) was “activation of pATM”, the pBRCA1 ([1]; U20S) was “upregulation of pBRCA1” and the Rad50 ([1]; sensitive lines (A673, H526)) was “Upregulation of Rad50”. For the same molecule, the “drug interaction (combination index)” value (A673 cells; BO-1055 combined with PU-H71, A673, 72h) was “synergistic”, the “drug interaction (combination index)” value (A673 cells; BO-1055 combined with SN-38, A673, 72h) was “highly synergistic” and the “drug interaction (combination index)” value (A673 cells; BO-1055 combined with doxorubicin, A673, 72h) was “synergistic”. For the same molecule, the “drug interaction (combination index)” value (A673 cells; BO-1055 combined with topotecan, A673, 72h) was “synergistic”, the “effect on BFU-E, GM and mixed colonies” value [2] was “no effect” and the “tumor regression in combination group compared to single drug groups” value ([3]; BO-1055 IV plus Irinotecan IP, 10mg/kg/dose qd x 5 or 5mg/kg/dose qd x 5, day 14) was “significantly greater”. For the same molecule, the “weight loss in combination group compared to single drug groups” value ([3]; BO-1055 plus Irinotecan) was “No significant weight loss”, the body weight (A204 xenografts; 30mg/kg q2d x 5) was “no significant decrease in body weight” and the tumor response (A204 xenografts; 30mg/kg q2d x 5, tail vein) was “Complete regression of tumors”.
